From PubChem BioAssay (NCI)
Values joined by “and” are separate entries in the source; they are usually repeats but may differ in a detail not shown here. Identical values can stand only once.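 The compound was tested at five concentrations on cells cultured in 96-well plates, with a 48-hour exposure period. GI50 marks 50% less growth. At the TGI there is no net growth.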

Key:
Assay in all cases: NCI anticancer screen, dose series, 48 h
NCI-H522 lung = system: NCI-H522 lung
A498 renal = system: A498 renal
RPMI-8226 leukemia = system: RPMI-8226 leukemia
NCI-H460 lung = system: NCI-H460 lung
SK-MEL-28 melanoma = system: SK-MEL-28 melanoma
COLO 205 colon = system: COLO 205 colon
OVCAR-3 ovarian = system: OVCAR-3 ovarian
HT29 colon = system: HT29 colon
OVCAR-5 ovarian = system: OVCAR-5 ovarian
CAKI-1 renal = system: CAKI-1 renal

SMILES	TGI (NCI-H522 lung) [µM]	TGI (A498 renal)	TGI (RPMI-8226 leukemia) [µM]	TGI (NCI-H460 lung) [µM]	TGI (SK-MEL-28 melanoma) [µM]	TGI (COLO 205 colon) [µM]	TGI (OVCAR-3 ovarian) [µM]	TGI (HT29 colon) [µM]	TGI (OVCAR-5 ovarian) [µM]	TGI (CAKI-1 renal) [µM]	GI50 (NCI-H522 lung) [µM]	GI50 (A498 renal) [µM]	GI50 (RPMI-8226 leukemia) [µM]	GI50 (NCI-H460 lung) [µM]	GI50 (SK-MEL-28 melanoma) [µM]	GI50 (COLO 205 colon)	GI50 (OVCAR-3 ovarian) [µM]	GI50 (HT29 colon) [µM]	GI50 (OVCAR-5 ovarian) [µM]	GI50 (CAKI-1 renal) [µM]
CNC(=O)NC(CCCCNC(=O)OCc1ccccc1)C(=O)OCc1ccccc1 (stereo unspecified)	21.4	71.4 µM	67.4	> 100	41.5	34.2	57.9	> 100	98.2	> 80.2										
CCOC(=O)C(C(=O)OCC)=C1N[C@H](C(=O)OCC)CS1	> 100		> 100	> 100	> 100	> 100	> 100	> 100	> 100	> 100										
COc1ccc(OC)c(/C=C2\COc3ccc(O)c(O)c3C2=O)c1	0.58	23.6 µM	6.12	5.61	7.51	9.51	5.31	6.6	6.48	5.73	0.219	11.2	0.751	2.07	2.65	3.22 µM	1.36	2.68	2.62	2.08
CCCCCNC(=O)c1c(O)[nH]c(=S)[nH]c1=O	> 100	> 100 µM	> 100	> 100	> 100	> 100	> 100	> 100	> 100	> 100										
O=C(c1nc2ccc(Cl)cc2[nH]c1=O)C(O)c1ccc2c(c1)OCO2 (stereo unspecified)	> 100	> 100 µM	> 100	> 100	> 100	> 100		> 100	> 100											
O=C(O)c1c[nH]c2c(OCc3ccccc3)c3ccccc3c(O)c2c1=O	> 100		35.8	38.7	36.9	34.7	11.8	58.8	34.2	35	25.7		9.04	14.9	19.3	17.6 µM	1.86	21.7	20	17
Cc1c(C(=O)/C=C/c2c(Cl)cccc2Cl)c(=O)n(-c2ccccc2)n1C	48.5	98.4 µM		82.7	> 100	> 100	73.5	> 100	> 100	> 100										
Cc1ccc(NC2=C(Cl)C(=O)N(Cc3ccccc3)C2=O)cc1Cl	15.4		3.36	23.6	29.3	22.1	15	36.6	43.3	26	2.97		0.454	6.78	12.9	7.03 µM	3.82	14.3	15.7	5.92
CC(=O)c1ccc(NC(=O)C(=O)C(C(=O)c2ccc(Cl)c(Cl)c2)C2OC(=O)c3ccccc32)cc1 (stereo unspecified)	22.1	37.6 µM		33.5		28.8	42.6	67.7	71.5	> 100										
CCC1CC(C)=CCN1S(=O)(=O)c1ccc(C)cc1 (stereo unspecified)	46.4	> 100 µM	20.5	91.7		38.4	44.9	39.3	> 100	> 100										
O=C(O)c1cccc2cccc(C(=O)O)c12.[Hg]	2.42	32.3 µM		31.7	29.3	14.5	30	27.2	33.5	53.8	0.687	18.3		16.4	14.9	3.1 µM	15.3	13.8	19.4	21.7
CCOC(=O)N[C@@H]1C2CC(=O)C(O2)[C@@H]1OC (stereo partly specified)	> 100		> 100	> 100	> 100	> 100	> 100	> 100	> 100	> 100										
C=C(C)[C@@H]1CC[C@]2(C(=O)O)CC[C@]3(C)[C@H](CC[C@@H]4[C@@]5(C)C/C(=C/c6ccc(OC)cc6)C(=O)C(C)(C)[C@@H]5CC[C@]43C)[C@@H]12	6.65	8.47 µM		3.92	3.72		3.23	10.2	12	11.5	1.97	2.28		1.82	1.91		1.69	3.09	3.2	2.16
COc1ccc(-c2nc(N3CCOCC3)c3sc(CN(C)c4ncc(C(=O)NO)cn4)cc3n2)cn1		0.0544 µM		10.9	0.136		0.0282	0.0331	0.0419	0.0436		< 0.0155	< 0.01	< 0.01	0.0129		< 0.01	< 0.01	< 0.01	0.0176
O=C(NC1CCCCC1)NS(=O)(=O)c1ccc(-n2nc3c(c2-c2ccc(Cl)cc2)Cc2ccccc2-3)cc1	52.5	40.2 µM	5.43	46	50.5	> 100	28.8	> 100		19.3	18.3	18.5	2.11	19.8	21.9	36.2 µM	13.7	34.8		4.52
CCCCCCCCCCCCCCCCCC(=O)OCC(C[As](=O)(O)O)OC(=O)CCCCCCCCCCCCCCCCC (stereo unspecified)	> 100	> 100 µM	80.8	> 100	> 100		> 100	> 100	> 100	> 100										
CN(C)C1=NC2=S(SC(Nc3ccccc3)=N2)S1 (stereo unspecified)	60.2	46.1 µM	57.1	> 100	56.2			> 100	> 100	60.7										
O=NN/C(=C1\Nc2ccc([N+](=O)[O-])cc2NC1=O)C(O)c1ccc([N+](=O)[O-])cc1 (stereo unspecified)	> 100		> 100	> 100	> 100	> 100	> 100	> 100	> 100	> 100										

SMILES	TGI (NCI-H522 lung) [µM]	TGI (A498 renal)	TGI (RPMI-8226 leukemia) [µM]	TGI (NCI-H460 lung) [µM]	TGI (SK-MEL-28 melanoma) [µM]	TGI (COLO 205 colon) [µM]	TGI (OVCAR-3 ovarian) [µM]	TGI (HT29 colon) [µM]	TGI (OVCAR-5 ovarian) [µM]	TGI (CAKI-1 renal) [µM]	GI50 (NCI-H522 lung) [µM]	GI50 (A498 renal) [µM]	GI50 (RPMI-8226 leukemia) [µM]	GI50 (NCI-H460 lung) [µM]	GI50 (SK-MEL-28 melanoma) [µM]	GI50 (COLO 205 colon)	GI50 (OVCAR-3 ovarian) [µM]	GI50 (HT29 colon) [µM]	GI50 (OVCAR-5 ovarian) [µM]	GI50 (CAKI-1 renal) [µM]
Clc1ccc(C2=NN[C@H](c3cn(-c4ccccc4)nc3-c3ccccc3)C2)cc1	28.4	8.77 µM	> 100	16.9	6.69	22.4	5.52	55.8		44.9	4.64	2.93	14.1	4.22	2.65	4.63 µM	2.54	5.76		10.4
Cc1ccc(C(=O)C#Cc2c[nH]c(=O)[nH]c2=O)cc1		28 µM		33.8	30.8	44.3	29.8	49.5	33	30.5										
COc1cc(Nc2nc3cc(C(F)(F)F)ccc3nc2-c2ccccc2)cc(OC)c1OC	83.4	> 100 µM		> 100	> 100	> 100	> 100	> 100	> 100	0.0575										
Cc1c(-c2nnc(-c3ccc(F)cc3)o2)nnn1-c1ccnc2c(C(F)(F)F)cccc12	> 100		> 100	> 100	74.1	> 100	> 100	> 100	> 100	> 100	84.7		30.6	30.4	22.6	42.1 µM	28.7	34.4	66.7	29.5
COC(=O)C(Cc1ccccc1)NC(=O)Cn1ccnc1[N+](=O)[O-] (stereo unspecified)	> 100	> 100 µM	> 100	> 100	> 100	> 100		> 100	> 100	> 100										
COc1ccc(NC(=O)CC(=O)N2N=C(N(CCC#N)c3cccc(C)c3)CC2c2ccccc2)cc1 (stereo unspecified)	> 100		> 100	> 100	> 100	> 100	> 100	> 100	> 100	> 100										
COC1OC(COS(=O)(=O)c2ccc(C)cc2)C(O)C(OS(=O)(=O)c2ccc(C)cc2)C1OS(=O)(=O)c1ccc(C)cc1 (stereo unspecified)	> 100		> 100	> 100	> 100	> 100	> 100	> 100	> 100	> 100										
Nc1ccc(-c2nc3ccccc3o2)cc1S	> 100	70.6 µM	32	29.6	58.8	> 100	31		45.3	36.4	35.5	28.3	12.4	13.2	24.9	27.5 µM	15.8		19.2	20.5
NC1=CC(=O)c2nc3ccccc3c3ccnc1c23	17.3	40.8 µM	> 100	4.6	32		> 51.9	21.2	62	> 95.6	2.48	6.19	5.18	0.0908	11.8		3.6	3.52	13.8	4.98
COC1=C2C[C@@H](C)C[C@@H](OC)[C@@H](O)[C@H](C)/C=C(\C)[C@@H](OC(N)=O)[C@H](OC)/C=C\C=C(/C)C(=O)NC(=CC1=O)C2=O		17.8 µM and 2.37 µM														0.0578 µM and 0.015 µM				
CCCC(=O)Nc1ccc2c(c1)CN1C(=O)c3ccccc3C1=N2	> 100		> 100	> 100	> 100	> 100	> 100	> 100	> 100	> 100										
Oc1ccc(-c2cn3cc(Cl)sc3n2)cc1	> 100	> 100 µM	40.7	53.5		43.4	64.1	78.8		> 100	32.6	57.5	16.5	12.9		19.8 µM	22.5	24.2		41.5
COc1ccc(CCN2CCC(Nc3nc4ccccc4n3Cc3ccc(F)cc3)CC2)cc1	4.91		4.73	9.54	3.03	2.98	3.07	2.36	3.7	3.24	2.37		1.78	2.67	1.61	1.52 µM	1.66	0.591	1.66	1.52
COc1ccc(-c2cc(-c3cc(C)ccc3O)[nH]c(=O)n2)cc1	94	> 100 µM	> 100	> 100	> 100	> 100	> 100	> 100		> 100										
O=C1CC[C@H](c2ccc(O)c3c2C(=O)[C@@H]2O[C@@H]2C3=O)c2cccc(O)c21	3.33	29 µM		30.4	3.62	2.88		6.3	20.3	9.33	1.72	15.5		3.74	1.83	1.24 µM		2.33	4.55	1.41
CC1=CC(=O)c2c(C=O)c(O)c(O)c(C(C)C)c2C1=O	32.4	78 µM	> 62.8	> 74.1	> 100	57.4			> 92.2	52.9										
c1ccc(CN2CCCCC(Sc3ccccc3)CC2)cc1 (stereo unspecified)		> 100 µM	38.9	42.5	> 100	26.2	> 100	33.5	45.1	69.6										
NC(=O)NC1=NC(Cc2ccccc2)C(=O)N1Cc1ccccc1 (stereo unspecified)			> 100	> 100	> 100	> 100	> 100	> 100	> 100											
